Square brackets hold non-standard residues; d marks the D form. Peptide text beside a SMILES is read from it. * marks the point of attachment. Biotin = O=C1N[C@H]2[C@H](CS[C@H]2CCCCC(=O)*)N1

For data set [1], the system named is A. baumannii. Type of data set: cell-based. Put shortly:
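Laboratory strains and 50 clinical isolates of A. baumannii were tested by CLSI broth microdilution, with serially diluted peptide (0.1-64 μg) and about 1×10^5 C.F.U. per well, incubated aerobically overnight at 35±2° C. MIC was read visually. MBC came from subculturing clear wells, as ≥99.9% inoculum reduction.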

Data set [2] has as its system A. baumannii. The experiment in a line: A. baumannii lung infection in mice, cell counts in lungs. The data set is classed as in vivo, C57B1/6 mice. As for the experimental part: Groups of C57B1/6 mice that have been ear-tagged for identification are used. Freshly-prepared inocula of A. baumannii are prepared from cultures of A. baumannii passaged four times through mice, and cultures are grown with agitation at 37° C. in Nutrient broth to an OD600 value of approximately 0.3 units. Cells are collected by centrifugation at room temperature for 20 mins (5,500 rpm using a GA-10 rotor) and resuspended in 10 ml sterile PBS at room temperature. This wash is repeated once. The cell pellet is then resuspended in 0.5 ml PBS to an approximate concentration of 2.5×10^9 c.f.u./ml. Animals are inoculated intranasally 40 μl inoculum (approximately 1×10^8 c.f.u.) using a sterile 200 μl capacity pipette tip having approximately 3 mm removed from the end. The precise time of inoculation is recorded for each animal. Peptides are administered intravenously e.g., after 3 hr, in 200 μl aliquots of a 200 μM peptide solution in PBS.
At 5.5 hr post-inoculation (taking into account staggered inoculation times), both lung lobes are removed from the animals, homogenised in 0.9 ml PBS and plated on MHB plates at 1×10^−3 dilution, 1×10^−4 dilution and 1×10^−5 dilution in PBS. Following incubation periods sufficient to grow colonies, cells are counted.

In the next data set the test system is Jurkat cells. The experiment in a line: Cytotoxicity against Jurkat cells (CellTiter Blue). The data set is classed as cell-based, human. As for the experimental part:
(§1) The cytotoxicities of selected peptides against human T-lymphocytes, in particular Jurkat cells, was determined by growing 100 uL Jurkat cells in RPMI (approx. 5×10^5 cells/ml density) overnight at 37° C. under 5% CO2 atmosphere, in microtiter plate wells, in the presence and absence of peptides. Control reactions either lacked peptide (negative cytotoxicity control), or contained a buffer to completely lyse Jurkat cells (positive cytotoxicity control). The viabilities of cells were then determined by addition of 20 uL CellTiter Blue dye (Promega) to each well, and incubation of cells for a further 3 hrs at 37° C. Fluorescence values were measured for 1 sec at 540 nm/615 nm, and expressed relative to fluorescence values for negative and positive cytotoxicity control samples. Comparison with a fully lysed control allowed the calculation of a percentage killing for each peptide concentration. The MCC10 value was calculated as the minimum peptide concentration required to induce 10% cytotoxicity.
A general note: Alamar Blue is a resazurin reagent that responds to reducing activity.

A short description of data set [3]: Cytotoxicity against Jurkat cells (CellTiter Blue). Type of data set: cell-based, human. The settings on record: human. As for the experimental part: as §1
A further data set concerns human RBC. The experiment in a line: Hemolysis of RBC. The data set is classed as cell-based. As for the experimental part:
Varying amounts of peptide were incubated with the washed RBC for one hour at room temperature. Intact cells were pelleted by gentle centrifugation, and hemolysis of each sample was determined by absorption measurement at 450 nm. A positive control sample consisted of RBC lysed by the addition of 0.1% Triton, for which hemolysis was also determined by absorption measurement at 450 nm. Percentages of lysed RBC incubated with peptide were then calculated by the ratio of absorbances at 450 nm for the sample relative to the absorbance at 450 nm of the positive control sample. The MHC10 value was calculated as the minimum peptide concentration to induce 10% cell lysis.

Data set [4] relates to Escherichia coli strain BL21. Type of data set: cell-based. As to conditions: summary of Table 6. As for the experimental part: Synthetic peptides were tested for their ability to inhibit bacterial growth in liquid culture. […] 19606, Acinetobacter spp. ATCC 17903, Acinetobacter spp. ATCC 19004, Escherichia coli strain BL21, S. aureus, S. typhimurium strain AroA, P. aeruginosa or P. pneumotropica. After 5-6 hours of shaking at 37° C., growth was measured as absorbance at 595 nm. As a control, cultures were grown in the presence of 0.1% acetonitrile (i.e., the concentration present in 10 μM peptide).

Consider `CC[C@@H](C)[C@@H](NC(=O)[C@@H](CCCNC(=N)N)NC(=O)[C@@H](C)NC(=O)[C@@H](CC(C)C)NC(=O)[C@@H](CCCNC(=N)N)NC(=O)[C@@H](CCCNC(=N)N)NC(=O)CCCC[C@@H]1SC[C@@H]2NC(=O)N[C@@H]21)C(=O)N[C@H](CCCCN)C(=O)N[C@H](CO)C(=O)N[C@H](CC(C)C)C(=O)N[C@H](CC(C)C)C(=O)N[C@H](CCC(N)=O)C(=O)N[C@H](CCCNC(=N)N)C(=O)N[C@H](CS)C(=O)N[C@@H](C(=O)N[C@H](C)C(=O)N[C@H](Cc1ccccc1)C(=O)N[C@H](Cc1ccccc1)C(=O)N[C@H](CO)C(=O)N[C@H](Cc1c[nH]cn1)C(=O)N[C@H](CC(N)=O)C(=O)N[C@H](Cc1ccc(O)cc1)C(=O)N[C@H](CCCNC(=N)N)C(=O)N[C@@H](C(=O)O)C(C)C)C(C)C` [Ac13r] (Biotin-[dR][dR][dL][dA][dR][dI][dK][dS][dL][dL][dQ][dR][dC][dV][dA][dF][dF][dS][dH][dN][dY][dR][dV]-OH; N-terminus and C-terminus assumed), for which, in the data set on A. baumannii [1], the “MIC (μM) for amidated peptide” value was 1.25 to 2.5 µM and the “MIC (μM) for non-amidated Peptide” value is 1.25 to 2.5 µM. In addition, in the data set with A. baumannii [2], the “trend to reduce A. baumannii infection in the lung” value is “strong trend”. In addition, the “Cell counts in lungs post-treatment, Mouse 2” value in the data set with A. baumannii [2] (as E41, Mouse 2) is 2.6 × 10^5. Besides, in the data set with A. baumannii [2] (as E41, Mouse 3), the “Cell counts in lungs post-treatment, Mouse 3” value is recorded as 9.0 × 10^4. In the data set on A. baumannii [2] (peptide i.v. after intranasal A. baumannii, lungs at 5.5 hr post-inoculation, Mouse 1), the “Cell counts in lungs post-treatment, Mouse 1” value was 1 × 10^4. In the data set with Jurkat cells, this molecule showed an MCC10 of 30 µM. In data set [3], this molecule came in with a cytotoxicity at 12.5 μM of 0%, a cytotoxicity at 25 μM of 3% and a cytotoxicity at 50 μM of 39%. Also, the MHC10 with human RBC is approximately 15 µM.

As to `CC[C@H](C)[C@H](NC(=O)[C@H](Cc1ccccc1)NC(=O)[C@H](CC(C)C)NC(=O)[C@H](CCC(N)=O)NC(=O)[C@H](CCCNC(=N)N)NC(=O)[C@H](Cc1ccccc1)NC(=O)[C@H](Cc1ccc(O)cc1)NC(=O)[C@H](CC(C)C)NC(=O)[C@H](Cc1c[nH]c2ccccc12)NC(=O)[C@H](Cc1ccccc1)NC(=O)[C@H](CCCNC(=N)N)NC(=O)[C@H](CCCNC(=N)N)NC(=O)[C@H](CO)NC(=O)[C@H](CC(=O)O)NC(=O)[C@H](CC(C)C)NC(=O)[C@H](Cc1c[nH]c2ccccc12)NC(=O)[C@H](Cc1ccccc1)NC(=O)[C@H](CC(=O)O)NC(=O)[C@H](CCCNC(=N)N)NC(=O)CCCC[C@@H]1SC[C@@H]2NC(=O)N[C@@H]21)C(=O)N[C@@H](Cc1c[nH]cn1)C(=O)N[C@@H](CC(N)=O)C(=O)N1CCC[C@H]1C(=O)N[C@@H](CCCCN)C(=O)O` [Ac475] (Biotin-RDFWLDSRRFWLYFRQLFIHNPK-OH), the “MIC (μM) for non-amidated Peptide” value in the data set on A. baumannii [1] is 15 µM. Also, in the data set with Jurkat cells, the MCC10 amounted to 35 µM. In addition, in data set [3], the cytotoxicity at 12.5 μM was determined as 4%, the cytotoxicity at 25 μM stood at 4% and the cytotoxicity at 50 μM was determined as 60%. The MHC10 with human RBC was found to be 10 µM.

Take `CC[C@H](C)[C@H](NC(=O)[C@H](Cc1ccccc1)NC(=O)[C@H](CC(C)C)NC(=O)[C@H](CCC(N)=O)NC(=O)[C@H](CCCNC(=N)N)NC(=O)[C@H](Cc1ccccc1)NC(=O)[C@H](Cc1ccc(O)cc1)NC(=O)[C@H](CC(C)C)NC(=O)[C@H](Cc1c[nH]c2ccccc12)NC(=O)[C@H](Cc1ccccc1)NC(=O)[C@H](CCCNC(=N)N)NC(=O)[C@H](CCCNC(=N)N)NC(=O)[C@H](CO)NC(=O)[C@H](CC(=O)O)NC(=O)CCCC[C@@H]1SC[C@@H]2NC(=O)N[C@@H]21)C(=O)N[C@@H](Cc1c[nH]cn1)C(=O)N[C@@H](CC(N)=O)C(=O)N1CCC[C@H]1C(=O)N[C@@H](CCCCN)C(=O)N[C@H](C(=O)N1CCC[C@H]1C(=O)N[C@H](C(=O)N[C@H](C(=O)N1CCC[C@H]1C(=O)O)[C@@H](C)O)[C@@H](C)CC)[C@@H](C)O` [Ac476] (Biotin-DSRRFWLYFRQLFIHNPKTPITP-OH): the “MIC (μM) for non-amidated Peptide” value in the data set with A. baumannii [1] was determined as 5 µM. In addition, in the data set on Jurkat cells, the MCC10 came to 10 µM. In addition, in data set [3], the cytotoxicity at 12.5 μM is 12%, the cytotoxicity at 25 μM amounted to 18% and the cytotoxicity at 50 μM came out at 44%. This molecule came in with an MHC10 with human RBC of 50 µM.

As for tachyplesin-1 [reference compound], in data set [4], the “inhibition of growth of E. coli” value was “inhibited growth of E. coli significantly”.

The values above are taken from patent US20110262508A1, “ANTIMICROBIAL COMPOSITIONS, FORMULATIONS AND USES THEREOF” (priority 2007, published 2011).
